Tests used:
[1] = Kinematic viscosity of aqueous solutions of non-aqueous solvents (25° C.); format: physicochemical
Source text: The “kinematic viscosity” herein is a value obtained by dividing viscosity of a liquid by its density and means a value measured using an Ubbelohde viscometer in accordance with Japanese Pharmacopoeia viscosity measuring method. In the invention, according to Japanese Pharmacopoeia, centistokes in CGS system is used as a unit.
These water-soluble acid amides may be used singly or as a mixture of two or more of them. Furthermore, within a range imparting no serious influence on viscosity, in addition to these, water-soluble non-aqueous solvents shown in JP-A-11-193233, for example, those described in the following Table 1 may be used as auxiliary solubilizing means.

[2] = as described in JP-B-63-65047; cited from earlier work

| Compound | Kinematic viscosity of aqueous solution ([1]; concentration 5% (W/V)) [Centistokes] | Kinematic viscosity of aqueous solution ([1]; concentration 10% (W/V)) [Centistokes] | Kinematic viscosity of aqueous solution ([1]; concentration 15% (W/V)) [Centistokes] | Kinematic viscosity of aqueous solution ([1]; concentration 20% (W/V)) [Centistokes] | Kinematic viscosity of aqueous solution ([1]; concentration 37% (W/V)) [Centistokes] | water-solubility [2] [w/v %] |
| --- | --- | --- | --- | --- | --- | --- |
| CCO [Ethanol] | 1.082 | 1.300 | 1.577 | 1.857 | 2.479 | – |
| NC(N)=Nc1nc(CSCCC(N)=NS(N)(=O)=O)cs1 [Famotidine] | – | – | – | – | – | ≤ 0.1 |
| CC(O)CO (centres unmarked) [Propylene glycol] | 1.067 | 1.247 | 1.455 | 1.729 | 3.048 | – |
